Test results taken from patent publication US20230312529A1, “PYRIMIDINE SMALL-MOLECULE COMPOUND AND APPLICATION THEREOF” (WENZHOU MEDICAL UNIVERSITY, priority 2021, published 2023).
Several values for one entry are separate records, joined by “and”; a condition that tells them apart may be missing. Equal entries are not always repeated. Where two headings read alike, the source gives them in different places. Each block holds one compound with its values, some of them ahead of it.

Columns and labels:
PDGFRα = PDGFRα (Homo sapiens (Human), UniProt P16234); assay: Caliper Mobility Shift kinase inhibition test; assay type: biochemical
Description: (§1) The method adopted in the test was Caliper Mobility Shift Assay, which was a detection platform based on the mobility detection technology of microfluidic chip technology. […] Collected data was tested on Caliper to yield that inhibition ratio to kinase activity=(max−conversion)/(max−min)×100. “max” was DMSO control without adding compound, and “min” was low control. When IC50 was determined, each sample was provided with 10 dilutions, each with 2 multiple holes, and repeated for 3 times.

ABL1 = ABL1 (Homo sapiens (Human), UniProt P00519); assay: Caliper Mobility Shift kinase inhibition test; assay type: biochemical; settings: 100 nM; for inhibition at 0.1 µM: read-out: inhibitory rate on ABL1
Description: as §1

PDGFRβ = PDGFRβ (Homo sapiens (Human), UniProt P09619); assay: Caliper Mobility Shift kinase inhibition test; assay type: biochemical; settings: for inhibitory rate on PDGFR-β / inhibition at 0.1 µM: 100 nM; for inhibition at 0.1 µM: read-out: inhibitory rate on PDGFR-β; for IC50: read-out: IC50 PDGFR-β
Description: (§2) The method adopted in the test was Caliper Mobility Shift Assay, which was a detection platform based on the mobility detection technology of microfluidic chip technology. Test steps: 1.25× kinase reaction buffer (62.5 mmol/L HEPES, pH 7.5; 0.001875% Brij-35; 12.5 mmol/L MgCl2; 2.5 mM DTT) and kinase reaction stop solution (100 mmol/L HEPES, pH 7.5; 0.015% Brij-35; 0.2% Coating Reagent #3) were configured. […] Collected data was tested on Caliper to yield that inhibition ratio to kinase activity=(max−conversion)/(max−min)×100. “max” was DMSO control without adding compound, and “min” was low control. When IC50 was determined, each sample was provided with 10 dilutions, each with 2 multiple holes, and repeated for 3 times.
(§3) According to the above-mentioned method for measuring kinase inhibitory activity, the inhibitory activity of the active compounds on other multiple kinases was measured to characterize the kinase selectivity of active inhibitors.

FLT3 = FLT3 (Homo sapiens (Human), UniProt P36888); assay: Caliper Mobility Shift kinase inhibition test; assay type: biochemical; settings: 100 nM; for inhibition at 0.1 µM: read-out: inhibitory rate on FLT3
Description: as §2

FGFR2 = FGFR2 (Homo sapiens (Human), UniProt P21802); assay: Caliper Mobility Shift kinase inhibition test; assay type: biochemical
Description: as §2, §3

JAK1 = JAK1 (Homo sapiens (Human), UniProt P23458); assay: Caliper Mobility Shift kinase inhibition test; assay type: biochemical
Description: as §2, §3

ALK = ALK (Homo sapiens (Human), UniProt Q9UM73); assay: Caliper Mobility Shift kinase inhibition test; assay type: biochemical
Description: as §2

IKK β = IKK β (Homo sapiens (Human), UniProt O14920); assay: Caliper Mobility Shift kinase inhibition test; assay type: biochemical
Description: as §2

MG-63 osteosarcoma cells = assay: MTT assay on osteosarcoma cells; assay type: cell-based; settings: Homo sapiens, 48 hours, read-out: Inhibitory activity (IC50) MG-63
Description: (§4) Logarithmic osteosarcoma cells were inoculated into a 96-well plate with a cell concentration of 1,500 cell/well for 6 hours by using MTT assay, and each well was filled with 200 μL of cell suspension. […] The samples were cultured in an incubator for 48 hours (37° C., 5% CO2), and 20 v L of MTT (3-(4,5-dimethylthiazole-2)-2,5-diphenyltetrazole) were added into each hole. After continuous culture for 4 hours, the culture solution was discarded by suction, and 200 v L of DMSO were added to each well. […] Calculation method of IC50 value: the IC50 values of the samples were calculated by curve fitting with GraphPad Prism software.

[1] = system: SAOS-2 osteosarcoma cells; assay: MTT assay on osteosarcoma cells; assay type: cell-based; settings: Homo sapiens, 48 hours, read-out: Inhibitory activity (IC50) SAOS-2
Description: as §4

[2] = system: MNNG/HOS osteosarcoma cells; assay: MTT assay on osteosarcoma cells; assay type: cell-based; settings: 48 hours, read-out: Inhibitory activity (IC50) MNNG/HOS
Description: as §4

U2OS osteosarcoma cells = assay: MTT assay on osteosarcoma cells; assay type: cell-based; settings: Homo sapiens, 48 hours, read-out: Inhibitory activity (IC50) U2OS
Description: as §4

[3] = system: human normal retinal cells ARPE-19; assay: MTT assay on human retinal cells; assay type: cell-based; settings: Homo sapiens, ARPE-19; MTT; read-out: Inhibitory activity (IC50) ARPE-19
[4] = system: human cerebrovascular pericytes (HBVP); assay: MTT assay on human neovascular cells; assay type: cell-based; settings: Homo sapiens; MTT; read-out: Inhibitory activity (IC50) HBVP
[5] = system: human brain microvascular endothelial cells (HCMEC/D3); assay: MTT assay on human neovascular cells; assay type: cell-based; settings: Homo sapiens, hCMEC/D3; MTT; read-out: Inhibitory activity (IC50) HCMEC-D3

Sequence of ALK (Q9UM73 19-1620, species assumed): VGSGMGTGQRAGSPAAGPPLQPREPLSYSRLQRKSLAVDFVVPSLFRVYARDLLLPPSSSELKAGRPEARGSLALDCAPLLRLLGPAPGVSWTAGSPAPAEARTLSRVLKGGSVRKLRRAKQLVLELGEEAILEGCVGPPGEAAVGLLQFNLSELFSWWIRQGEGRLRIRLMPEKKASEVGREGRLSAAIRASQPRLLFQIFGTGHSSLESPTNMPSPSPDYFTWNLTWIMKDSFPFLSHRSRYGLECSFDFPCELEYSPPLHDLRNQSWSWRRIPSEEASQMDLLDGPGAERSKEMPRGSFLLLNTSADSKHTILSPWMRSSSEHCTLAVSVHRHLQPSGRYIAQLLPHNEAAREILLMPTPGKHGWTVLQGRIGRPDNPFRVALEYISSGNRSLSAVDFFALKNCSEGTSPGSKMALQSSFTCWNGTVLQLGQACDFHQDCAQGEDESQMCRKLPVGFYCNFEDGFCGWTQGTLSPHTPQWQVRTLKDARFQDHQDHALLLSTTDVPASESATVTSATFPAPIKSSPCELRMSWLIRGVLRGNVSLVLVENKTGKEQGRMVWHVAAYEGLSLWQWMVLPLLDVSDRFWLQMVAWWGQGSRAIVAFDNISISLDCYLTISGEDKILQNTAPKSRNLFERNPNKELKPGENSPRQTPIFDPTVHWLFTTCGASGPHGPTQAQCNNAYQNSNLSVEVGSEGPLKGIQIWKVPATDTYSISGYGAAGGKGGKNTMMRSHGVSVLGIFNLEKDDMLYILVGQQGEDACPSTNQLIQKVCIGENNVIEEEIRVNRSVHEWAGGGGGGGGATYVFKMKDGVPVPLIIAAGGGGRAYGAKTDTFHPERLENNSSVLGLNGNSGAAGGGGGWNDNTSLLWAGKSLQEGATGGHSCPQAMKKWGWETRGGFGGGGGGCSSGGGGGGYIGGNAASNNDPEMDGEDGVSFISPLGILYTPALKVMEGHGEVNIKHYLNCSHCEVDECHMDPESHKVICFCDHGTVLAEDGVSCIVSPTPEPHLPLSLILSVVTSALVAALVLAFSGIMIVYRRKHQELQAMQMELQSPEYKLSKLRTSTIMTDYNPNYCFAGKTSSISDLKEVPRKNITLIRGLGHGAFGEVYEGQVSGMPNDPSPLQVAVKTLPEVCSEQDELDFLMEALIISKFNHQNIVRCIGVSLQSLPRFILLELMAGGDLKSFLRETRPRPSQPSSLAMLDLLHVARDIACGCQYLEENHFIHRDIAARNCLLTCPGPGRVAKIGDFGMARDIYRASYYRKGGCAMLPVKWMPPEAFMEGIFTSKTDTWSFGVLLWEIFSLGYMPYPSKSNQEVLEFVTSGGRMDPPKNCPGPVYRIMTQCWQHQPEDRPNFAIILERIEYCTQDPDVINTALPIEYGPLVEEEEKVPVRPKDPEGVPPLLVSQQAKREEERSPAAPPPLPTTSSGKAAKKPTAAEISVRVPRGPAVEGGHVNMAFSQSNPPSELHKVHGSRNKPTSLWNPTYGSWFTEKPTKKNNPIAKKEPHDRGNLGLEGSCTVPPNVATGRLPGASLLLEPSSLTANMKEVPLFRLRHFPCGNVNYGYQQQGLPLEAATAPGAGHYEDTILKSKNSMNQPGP
Sequence of ABL1 (P00519 whole entry): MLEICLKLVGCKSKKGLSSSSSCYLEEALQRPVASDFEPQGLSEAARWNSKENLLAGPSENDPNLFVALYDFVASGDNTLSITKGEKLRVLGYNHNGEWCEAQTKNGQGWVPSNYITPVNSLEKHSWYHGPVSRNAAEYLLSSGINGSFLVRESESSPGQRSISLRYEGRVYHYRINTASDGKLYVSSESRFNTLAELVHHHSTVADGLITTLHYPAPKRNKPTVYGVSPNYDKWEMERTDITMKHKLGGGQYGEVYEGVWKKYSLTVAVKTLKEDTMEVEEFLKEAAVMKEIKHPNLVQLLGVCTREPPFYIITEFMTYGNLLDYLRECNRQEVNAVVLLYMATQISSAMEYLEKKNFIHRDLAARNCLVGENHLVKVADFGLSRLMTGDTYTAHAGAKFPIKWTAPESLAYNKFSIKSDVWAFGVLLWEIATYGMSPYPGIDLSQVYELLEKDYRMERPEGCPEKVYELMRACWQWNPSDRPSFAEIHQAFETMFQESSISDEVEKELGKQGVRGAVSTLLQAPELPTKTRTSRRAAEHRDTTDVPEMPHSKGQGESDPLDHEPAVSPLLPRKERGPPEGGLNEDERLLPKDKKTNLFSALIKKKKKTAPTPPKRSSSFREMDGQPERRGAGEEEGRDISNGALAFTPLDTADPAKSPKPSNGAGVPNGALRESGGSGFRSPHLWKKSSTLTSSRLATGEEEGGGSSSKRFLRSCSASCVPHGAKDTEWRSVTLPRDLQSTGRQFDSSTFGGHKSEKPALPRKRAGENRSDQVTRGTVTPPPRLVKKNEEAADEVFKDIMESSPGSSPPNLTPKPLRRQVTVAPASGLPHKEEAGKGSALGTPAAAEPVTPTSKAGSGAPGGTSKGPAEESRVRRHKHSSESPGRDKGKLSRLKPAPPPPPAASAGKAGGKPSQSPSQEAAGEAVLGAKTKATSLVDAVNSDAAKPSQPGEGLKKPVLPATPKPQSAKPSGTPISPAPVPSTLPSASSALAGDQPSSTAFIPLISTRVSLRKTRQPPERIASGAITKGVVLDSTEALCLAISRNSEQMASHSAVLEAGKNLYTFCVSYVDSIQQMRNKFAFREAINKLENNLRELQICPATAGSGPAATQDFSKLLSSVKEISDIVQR
Sequence of FLT3 (P36888 27-993): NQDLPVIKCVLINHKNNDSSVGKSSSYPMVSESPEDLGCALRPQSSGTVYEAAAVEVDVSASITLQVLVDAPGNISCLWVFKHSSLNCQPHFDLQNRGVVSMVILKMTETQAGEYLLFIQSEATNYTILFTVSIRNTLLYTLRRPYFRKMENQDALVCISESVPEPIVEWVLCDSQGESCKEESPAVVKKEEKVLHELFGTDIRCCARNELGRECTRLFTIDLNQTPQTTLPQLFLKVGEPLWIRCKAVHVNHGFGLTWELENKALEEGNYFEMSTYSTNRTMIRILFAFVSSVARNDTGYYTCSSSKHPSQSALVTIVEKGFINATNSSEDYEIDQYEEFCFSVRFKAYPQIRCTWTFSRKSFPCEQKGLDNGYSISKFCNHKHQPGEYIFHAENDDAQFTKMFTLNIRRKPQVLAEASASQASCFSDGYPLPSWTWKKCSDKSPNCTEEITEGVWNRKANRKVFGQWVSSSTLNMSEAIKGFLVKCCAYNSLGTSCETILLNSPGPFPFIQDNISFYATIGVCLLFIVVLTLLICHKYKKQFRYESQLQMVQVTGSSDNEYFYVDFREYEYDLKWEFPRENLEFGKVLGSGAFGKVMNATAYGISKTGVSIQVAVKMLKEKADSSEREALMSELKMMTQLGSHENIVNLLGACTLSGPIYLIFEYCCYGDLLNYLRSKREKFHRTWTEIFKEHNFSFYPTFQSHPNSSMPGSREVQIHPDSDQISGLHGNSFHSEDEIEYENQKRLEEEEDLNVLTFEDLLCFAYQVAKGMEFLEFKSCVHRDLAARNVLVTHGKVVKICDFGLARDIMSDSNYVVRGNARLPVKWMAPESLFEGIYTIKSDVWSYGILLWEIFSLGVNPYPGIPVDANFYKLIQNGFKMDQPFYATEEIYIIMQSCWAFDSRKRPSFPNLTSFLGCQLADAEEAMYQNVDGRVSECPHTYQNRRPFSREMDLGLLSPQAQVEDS
Sequence of IKK β (O14920 whole entry, species assumed): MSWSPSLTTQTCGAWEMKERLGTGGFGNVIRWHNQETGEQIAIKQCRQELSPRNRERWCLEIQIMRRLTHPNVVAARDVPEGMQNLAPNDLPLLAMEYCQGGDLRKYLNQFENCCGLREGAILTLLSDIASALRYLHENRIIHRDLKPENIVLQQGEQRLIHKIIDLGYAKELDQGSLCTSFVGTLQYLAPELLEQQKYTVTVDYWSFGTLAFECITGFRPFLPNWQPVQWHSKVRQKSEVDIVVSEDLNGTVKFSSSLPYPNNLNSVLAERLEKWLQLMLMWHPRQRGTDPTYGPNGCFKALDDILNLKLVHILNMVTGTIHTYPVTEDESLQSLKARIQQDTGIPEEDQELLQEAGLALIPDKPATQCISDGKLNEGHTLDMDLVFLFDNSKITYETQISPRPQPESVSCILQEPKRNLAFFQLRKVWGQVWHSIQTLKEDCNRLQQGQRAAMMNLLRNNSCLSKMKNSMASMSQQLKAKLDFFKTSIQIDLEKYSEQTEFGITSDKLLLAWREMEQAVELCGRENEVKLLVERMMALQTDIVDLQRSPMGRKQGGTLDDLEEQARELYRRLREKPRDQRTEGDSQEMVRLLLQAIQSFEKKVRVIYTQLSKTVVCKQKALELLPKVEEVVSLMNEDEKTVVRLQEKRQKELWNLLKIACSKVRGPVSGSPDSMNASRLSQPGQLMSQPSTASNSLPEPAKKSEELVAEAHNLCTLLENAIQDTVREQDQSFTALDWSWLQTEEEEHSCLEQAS

inhibitory rate on ABL1 (ABL1): 50.6% | IC50 (FGFR2): 540 nM | inhibitory rate on PDGFR-β (PDGFRβ): 48.5% | IC50 (PDGFRβ): 103 nM | IC50 (JAK1): 72 nM | inhibitory rate on FLT3 (FLT3): 74.6% | IC50 (ALK): 476 nM | IC50 (IKK β): > 1000 nM
Compound: Cc1cnc(Nc2ccc(N3CCC(F)(F)CC3)cc2)nc1Nc1ccc2cn[nH]c2c1 [Compound 6c]

inhibition at 0.1 µM (ABL1): 59.6% | IC50 (FGFR2): 117 nM | inhibition at 0.1 µM (PDGFRβ): 70.3% | IC50 (PDGFRβ): 70.3 nM and 39 nM | IC50 (JAK1): 99 nM | inhibition at 0.1 µM (FLT3): 78.4% | IC50 (ALK): 186 nM | IC50 (IKK β): 619 nM
Compound: Cc1cnc(Nc2ccc(N3CCS(=O)(=O)CC3)cc2)nc1Nc1ccc2cn[nH]c2c1 [Compound 6d, 4-(4-((4-((1H-indazol-6-yl)amino)-5-methylpyrimidine-2-yl)amino)phenyl)thiomorpholine 1,1-dioxide]

inhibition at 0.1 µM (ABL1): 78.8% | IC50 (FGFR2): > 1000 nM | inhibition at 0.1 µM (PDGFRβ): 63.4% | IC50 (PDGFRβ): 72 nM | IC50 (JAK1): 199 nM | inhibition at 0.1 µM (FLT3): 79.5% | IC50 (ALK): 7 nM | IC50 (IKK β): > 1000 nM
Compound: COc1cc(N2CCN(C)CC2)ccc1Nc1ncc(C)c(Nc2ccc3cn[nH]c3c2)n1 [Compound 6e, N^4-(1H-indazol-6-yl)-N^2-(2-methoxy-4-(4-methylpiperazine-1-yl)phenyl)-5-methylpyrimidine-2,4-diamine]

inhibitory rate on ABL1 (ABL1): 89.6% | IC50 (FGFR2): 81 nM | inhibitory activity on PDGFRβ (in words) (PDGFRβ): significant inhibitory activities | inhibitory rate on PDGFR-β (PDGFRβ): 93.8% | IC50 (PDGFRβ): 8.8 nM | IC50 (JAK1): 13 nM | inhibitory rate on FLT3 (FLT3): 87.6% | IC50 (ALK): 26 nM | IC50 (IKK β): 595 nM
Compound: Cc1cnc(Nc2ccc(N3CCN(C)CC3)cc2)nc1Nc1ccc2cn[nH]c2c1 [Compound 6g, N^4-(1H-indazol-6-yl)-5-methyl-N^2-(4-(4-methylpiperazine-1-yl)phenyl)pyrimidine-2,4-diamine]

inhibition at 0.1 µM (ABL1): 87.5% | IC50 (FGFR2): > 1000 nM | inhibition at 0.1 µM (PDGFRβ): 80.2% | IC50 (PDGFRβ): 40 nM | IC50 (JAK1): 320 nM | inhibition at 0.1 µM (FLT3): 82.6% | IC50 (ALK): 5.8 nM | IC50 (IKK β): > 1000 nM
Compound: CCN1CCN(c2ccc(Nc3ncc(C)c(Nc4ccc5cn[nH]c5c4)n3)c(OC)c2)CC1 [Compound 6h, N^2-(4-(4-ethylpiperazine-1-yl)-2-methoxyphenyl)-N^4-(1H-indazol-6-yl)-5-methylpyrimidine-2,4-diamine]

inhibitory rate on ABL1 (ABL1): 81.2% | IC50 (FGFR2): 102 nM | inhibitory rate on PDGFR-β (PDGFRβ): 82.4% | IC50 (PDGFRβ): 19 nM | IC50 (JAK1): 6 nM | inhibitory rate on FLT3 (FLT3): 82.3% | IC50 (ALK): 95 nM | IC50 (IKK β): 181 nM
Compound: Cc1cnc(Nc2ccc(C(=O)NCCN3CCOCC3)cc2)nc1Nc1ccc2cn[nH]c2c1 [Compound 6n]

Further lines, the compound ahead of its results:

Compound: Cc1cnc(Nc2ccc(N3CCN(C)CC3)cc2)nc1Nc1ccc2[nH]ccc2c1 [Compound 5a]
inhibitory rate on PDGFR-α (PDGFRα; 100 nM): 57.3% | inhibitory rate on ABL1 (ABL1): 58.9% | inhibitory rate on PDGFR-β (PDGFRβ): 78.6% | inhibitory rate on FLT3 (FLT3): 60.3%

Compound: Cc1cnc(Nc2ccc(N3CCN(C)CC3)cc2)nc1Nc1ccc2cnn(C)c2c1 [Compound 5k, 5-methyl-N^4-(1-methyl-1H-indazol-6-yl)-N^2-(4-(4-methylpiperazine-1-yl)phenyl)pyrimidine-2,4-diamine]
inhibition at 0.1 µM (PDGFRα; 100 nM, read-out: inhibitory rate on PDGFR-α): 91.1% | IC50 (PDGFRα; read-out: IC50 PDGFR-α): 19 nM | inhibition at 0.1 µM (ABL1): 90.4% | inhibition at 0.1 µM (PDGFRβ): 96.4% | IC50 (PDGFRβ): 7.3 nM | inhibition at 0.1 µM (FLT3): 88.7%

Compound: COc1cc(Nc2ncc(C)c(Nc3ccc4cn[nH]c4c3)n2)ccc1N1CCN(C)CC1 [Compound 6f, N^4-(1H-indazol-6-yl)-N^2-(3-methoxy-4-(4-methylpiperazine-1-yl)phenyl)-5-methylpyrimidine-2,4-diamine]
inhibition at 0.1 µM (ABL1): 98% | IC50 (FGFR2): 61 nM | inhibitory activity on PDGFRβ (in words) (PDGFRβ): significant inhibitory activities | inhibition at 0.1 µM (PDGFRβ): 97% | IC50 (PDGFRβ): 2.6 nM | IC50 (JAK1): 31 nM | IC50 (MG-63 osteosarcoma cells): 841 ± 5 nM | IC50 [1]: 720 ± 25 nM | IC50 [2]: 1360 ± 19 nM | IC50 (U2OS osteosarcoma cells): 756 ± 1 nM | inhibition at 0.1 µM (FLT3): 97.8% | IC50 (ALK): 11 nM | IC50 (IKK β): > 1000 nM

Compound: Cc1cnc(Nc2ccc(N3CCC(N4CCN(C)CC4)CC3)cc2)nc1Nc1ccc2cn[nH]c2c1 [Compound 6j, N^4-(1H-indazol-6-yl)-5-methyl-N^2-(4-(4-(4-methylpiperazine-1-y 1)piperidine-1-yl)phenyl)pyrimidine-2,4-diamine]
inhibitory rate on ABL1 (ABL1): 87.6% | IC50 (FGFR2): 89 nM | inhibitory rate on PDGFR-β (PDGFRβ): 85.4% | IC50 (PDGFRβ): 12 nM | IC50 (JAK1): 14 nM | inhibitory rate on FLT3 (FLT3): 91.0% | IC50 (ALK): 23 nM | IC50 (IKK β): > 1000 nM

Compound: Cc1ccc(Nc2nccc(N(C)c3ccc4c(C)n(C)nc4c3)n2)cc1S(N)(=O)=O [Pazopanib, reference compound]
inhibition at 0.1 µM (PDGFRα; read-out: inhibitory rate on PDGFR-α, 100 nM): 96.9% | inhibition at 0.1 µM (PDGFRβ): 76.7% | IC50 (MG-63 osteosarcoma cells): > 100000 nM | IC50 [1]: > 100000 nM | IC50 [2]: 8520 ± 868 nM | IC50 (U2OS osteosarcoma cells): > 100000 nM | inhibition at 0.1 µM (FLT3): 80.6%

Compound: CNC(=O)c1cc(Oc2ccc(NC(=O)Nc3ccc(Cl)c(C(F)(F)F)c3)cc2)ccn1 [Sorafenib, reference compound]
IC50 [3]: 23290 ± 143 nM | IC50 [4]: 9920 ± 598 nM | IC50 [5]: 6320 ± 730 nM

Compound: Cc1[nH]c(/C=C2\C(=O)Nc3ccc(F)cc32)c(C)c1C(=O)N[C@H]1CCN(C(=O)N(C)C)C1 [Vorolanib, reference compound]
IC50 [3]: 56200 ± 3230 nM | IC50 [4]: 18500 ± 10500 nM | IC50 [5]: 34300 ± 885 nM
